Assay results taken from paper PMC8330742, “New benzothieno[2,3-c]pyridines as non-steroidal CYP17 inhibitors: design, synthesis, anticancer screening, apoptosis induction, and in silico ADME profile studies” (Journal of Enzyme Inhibition and Medicinal Chemistry, 2021).

How the values were obtained:
[1] = test system: HCC-2998; test: NCI-60 SRB screen; format: cell-based, human; conditions: Homo sapiens; HCC-2998; single dose 10^−5 M; read-out: Growth inhibition (%)
[2] = test system: SF-268; test: NCI-60 SRB screen; format: cell-based, human; conditions: Homo sapiens; SF-268; single dose 10^−5 M; read-out: Growth inhibition (%)
[3] = test system: K-562; test: NCI-60 SRB screen; format: cell-based, human; conditions: Homo sapiens, K562; K-562; single dose 10^−5 M; read-out: Growth inhibition (%)
[4] = test system: TK-10; test: NCI-60 SRB screen; format: cell-based, human; conditions: Homo sapiens; TK-10; single dose 10^−5 M; read-out: Growth inhibition (%)
[5] = test system: NCI-H226; test: NCI-60 SRB screen; format: cell-based, human; conditions: Homo sapiens; NCI-H226; single dose 10^−5 M; read-out: Growth inhibition (%)
[6] = test system: M14; test: NCI-60 SRB screen; format: cell-based, human; conditions: Homo sapiens; M14; single dose 10^−5 M; read-out: Growth inhibition (%)
[7] = test system: NCI-H23; test: NCI-60 SRB screen; format: cell-based, human; conditions: Homo sapiens; NCI-H23; single dose 10^−5 M; read-out: Growth inhibition (%)
[8] = test system: EKVX; test: NCI-60 SRB screen; format: cell-based, human; conditions: Homo sapiens, single dose 10^−5 M, read-out: Growth inhibition (%)
[9] = test system: panel of 60 cancer cell lines; test: NCI-60 SRB screen, mean or range over the panel; format: cell-based, human; conditions: Homo sapiens; mean over the cell lines; single dose 10^−5 M; read-out: Mean growth inhibition (%)
[10] = test system: SK-MEL-28; test: NCI-60 SRB screen; format: cell-based; conditions: Homo sapiens; SK-MEL-28; single dose 10^−5 M; read-out: Growth inhibition (%)
[11] = test system: MOLT-4; test: NCI-60 SRB screen; format: cell-based; conditions: Homo sapiens; MOLT-4; single dose 10^−5 M; read-out: Growth inhibition (%)
[12] = test system: COLO 205; test: NCI-60 SRB screen; format: cell-based, human; conditions: Homo sapiens; COLO 205; single dose 10^−5 M; read-out: Growth inhibition (%)
[13] = test system: OVCAR-4; test: NCI-60 SRB screen; format: cell-based, human; conditions: Homo sapiens; OVCAR-4; single dose 10^−5 M; read-out: Growth inhibition (%)
[14] = test system: LOX IMVI; test: NCI-60 SRB screen; format: cell-based, human; conditions: Homo sapiens, single dose 10^−5 M, read-out: Growth inhibition (%)
[15] = test system: KM12; test: NCI-60 SRB screen; format: cell-based, human; conditions: Homo sapiens; KM12; single dose 10^−5 M; read-out: Growth inhibition (%)
[16] = test system: SK-OV-3; test: NCI-60 SRB screen; format: cell-based, human; conditions: Homo sapiens; SK-OV-3; single dose 10^−5 M; read-out: Growth inhibition (%)
[17] = test system: SK-MEL-2; test: NCI-60 SRB screen; format: cell-based, human; conditions: Homo sapiens; SK-MEL-2; single dose 10^−5 M; read-out: Growth inhibition (%)
[18] = test system: OVCAR-8; test: NCI-60 SRB screen; format: cell-based, human; conditions: Homo sapiens; OVCAR-8; single dose 10^−5 M; read-out: Growth inhibition (%)
[19] = test system: SF-295; test: NCI-60 SRB screen; format: cell-based, human; conditions: Homo sapiens; SF-295; single dose 10^−5 M; read-out: Growth inhibition (%)
[20] = test system: IGROV1; test: NCI-60 SRB screen; format: cell-based, human; conditions: Homo sapiens, IGROV-1; IGROV1; single dose 10^−5 M; read-out: Growth inhibition (%)
[21] = test system: SN12C; test: NCI-60 SRB screen; format: cell-based, human; conditions: Homo sapiens, SN12C; SN 12 C; single dose 10^−5 M; read-out: Growth inhibition (%)
[22] = test system: HCT-116; test: NCI-60 SRB screen; format: cell-based, human; conditions: Homo sapiens; HCT-116; single dose 10^−5 M; read-out: Growth inhibition (%)
[23] = test system: SK-MEL-5; test: NCI-60 SRB screen; format: cell-based, human; conditions: Homo sapiens; SK-MEL-5; single dose 10^−5 M; read-out: Growth inhibition (%)
[24] = test system: HCT-15; test: NCI-60 SRB screen; format: cell-based, human; conditions: Homo sapiens; HCT-15; single dose 10^−5 M; read-out: Growth inhibition (%)
[25] = test system: UO-31; test: NCI-60 SRB screen; format: cell-based, human; conditions: Homo sapiens; UO-31; single dose 10^−5 M; read-out: Growth inhibition (%)
[26] = test system: HL-60(TB); test: NCI-60 SRB screen; format: cell-based, human; conditions: Homo sapiens; HL-60 (TB); single dose 10^−5 M; read-out: Growth inhibition (%)
[27] = test system: UACC-257; test: NCI-60 SRB screen; format: cell-based, human; conditions: Homo sapiens, UACC-257; UACC-275 (so in the source); single dose 10^−5 M; read-out: Growth inhibition (%)
[28] = test system: HOP-62; test: NCI-60 SRB screen; format: cell-based, human; conditions: Homo sapiens; HOP-62; single dose 10^−5 M; read-out: Growth inhibition (%)
[29] = test system: ACHN; test: NCI-60 SRB screen; format: cell-based; conditions: Homo sapiens, single dose 10^−5 M, read-out: Growth inhibition (%)
[30] = test system: NCI-H460; test: NCI-60 SRB screen; format: cell-based, human; conditions: Homo sapiens; NCI-H460; single dose 10^−5 M; read-out: Growth inhibition (%)
[31] = test system: HT-29; test: NCI-60 SRB screen; format: cell-based; conditions: Homo sapiens; HT-29; single dose 10^−5 M; read-out: Growth inhibition (%)
[32] = test system: SW-620; test: NCI-60 SRB screen; format: cell-based; conditions: Homo sapiens; SW-620; single dose 10^−5 M; read-out: Growth inhibition (%)
[33] = test system: 786-0; test: NCI-60 SRB screen; format: cell-based; conditions: Homo sapiens; 786-0; single dose 10^−5 M; read-out: Growth inhibition (%)
[34] = test system: CAKI-1; test: NCI-60 SRB screen; format: cell-based, human; conditions: Homo sapiens; CAKI-1; single dose 10^−5 M; read-out: Growth inhibition (%)
[35] = test system: NCI-H522; test: NCI-60 SRB screen; format: cell-based, human; conditions: Homo sapiens; NCI-H522; single dose 10^−5 M; read-out: Growth inhibition (%)
[36] = test system: CCRF-CEM; test: NCI-60 SRB screen; format: cell-based; conditions: Homo sapiens, single dose 10^−5 M, read-out: Growth inhibition (%)
[37] = test system: NCI/ADR-RES; test: NCI-60 SRB screen; format: cell-based, human; conditions: Homo sapiens, single dose 10^−5 M, read-out: Growth inhibition (%)
[38] = test system: UACC-62; test: NCI-60 SRB screen; format: cell-based, human; conditions: Homo sapiens; UACC-62; single dose 10^−5 M; read-out: Growth inhibition (%)
[39] = test system: OVCAR-3; test: NCI-60 SRB screen; format: cell-based, human; conditions: Homo sapiens; OVCAR-3; single dose 10^−5 M; read-out: Growth inhibition (%)
[40] = test system: MALME-3M; test: NCI-60 SRB screen; format: cell-based, human; conditions: Homo sapiens, single dose 10^−5 M, read-out: Growth inhibition (%)
[41] = test system: A549/ATCC; test: NCI-60 SRB screen; format: cell-based, human; conditions: Homo sapiens, single dose 10^−5 M, read-out: Growth inhibition (%)
[42] = test system: RXF 393; test: NCI-60 SRB screen; format: cell-based, human; conditions: Homo sapiens; RXF 393; single dose 10^−5 M; read-out: Growth inhibition (%)
[43] = test system: NCI-H322M; test: NCI-60 SRB screen; format: cell-based, human; conditions: Homo sapiens, single dose 10^−5 M, read-out: Growth inhibition (%)
[44] = test system: HOP-92; test: NCI-60 SRB screen; format: cell-based, human; conditions: Homo sapiens; HOP-92; single dose 10^−5 M; read-out: Growth inhibition (%)

Structure (SMILES): O=C1NC(c2ccccc2[N+](=O)[O-])c2sc3c(F)cccc3c2C1Cl (stereo not shown) [Compound 4c, 4-Chloro-8-fluoro-1-(2-nitrophenyl)-1,2-dihydro[1]benzothieno[2,3-c] pyridine-3(4H)-one]
- inhibition at 10 µM [1]: -27.4%
- inhibition at 10 µM [2]: 10.5%
- inhibition at 10 µM [3]: 33.5%
- inhibition at 10 µM [4]: -52%
- inhibition at 10 µM [5]: 18.5%
- inhibition at 10 µM [6]: 1.7%
- inhibition at 10 µM [7]: 6.95%
- inhibition at 10 µM [8]: 11.8%
- inhibition at 10 µM [9]: 3%
- inhibition at 10 µM [10]: 8.45%
- inhibition at 10 µM [11]: 11.8%
- inhibition at 10 µM [12]: -21.6%
- inhibition at 10 µM [13]: 11.1%
- inhibition at 10 µM [14]: 8.72%
- inhibition at 10 µM [15]: -0.66%
- inhibition at 10 µM [16]: -9.85%
- inhibition at 10 µM [17]: -16.7%
- inhibition at 10 µM [18]: 1.73%
- inhibition at 10 µM [19]: -7.26%
- inhibition at 10 µM [20]: 33%
- inhibition at 10 µM [21]: 4.76%
- inhibition at 10 µM [22]: 11.4%
- inhibition at 10 µM [23]: 8.45%
- inhibition at 10 µM [24]: -1.51%
- inhibition at 10 µM [25]: 33.2%
- inhibition at 10 µM [26]: -5.53%
- inhibition at 10 µM [27]: -0.18%
- inhibition at 10 µM [28]: 3.32%
- inhibition at 10 µM [29]: -4.45%
- inhibition at 10 µM [30]: 17.2%
- inhibition at 10 µM [31]: -9.93%
- inhibition at 10 µM [32]: 2.43%
- inhibition at 10 µM [33]: -16.9%
- inhibition at 10 µM [34]: 12.4%
- inhibition at 10 µM [35]: 7.95%
- inhibition at 10 µM [36]: -0.04%
- inhibition at 10 µM [37]: -1.98%
- inhibition at 10 µM [38]: 20.8%
- inhibition at 10 µM [39]: 7.25%
- inhibition at 10 µM [40]: 9.46%
- inhibition at 10 µM [41]: 3.15%
- inhibition at 10 µM [42]: -17.3%
- inhibition at 10 µM [43]: -4.23%
- inhibition at 10 µM [44]: -11.2%

Structure (SMILES): O=C1NC(c2cccc([N+](=O)[O-])c2)c2sc3c(F)cccc3c2C1Cl (stereo not shown) [Compound 4d, 4-Chloro-8-fluoro-1-(3-nitrophenyl)-1,2-dihydro[1]benzothieno[2,3-c] pyridine-3(4H)-one]
- inhibition at 10 µM [1]: -15.9%
- inhibition at 10 µM [2]: 6.94%
- inhibition at 10 µM [3]: 23%
- inhibition at 10 µM [4]: -40.7%
- inhibition at 10 µM [5]: 5.26%
- inhibition at 10 µM [6]: -0.99%
- inhibition at 10 µM [7]: -1.19%
- inhibition at 10 µM [8]: 0.87%
- inhibition at 10 µM [9]: 0.15%
- inhibition at 10 µM [10]: -10.5%
- inhibition at 10 µM [11]: 9.18%
- inhibition at 10 µM [12]: -17.2%
- inhibition at 10 µM [13]: 1.96%
- inhibition at 10 µM [14]: 5.22%
- inhibition at 10 µM [15]: -5.21%
- inhibition at 10 µM [16]: -10.2%
- inhibition at 10 µM [17]: -26.1%
- inhibition at 10 µM [18]: -1.82%
- inhibition at 10 µM [19]: -3.1%
- inhibition at 10 µM [20]: 22.8%
- inhibition at 10 µM [21]: 2.95%
- inhibition at 10 µM [22]: 9.54%
- inhibition at 10 µM [23]: 4.05%
- inhibition at 10 µM [24]: 1.31%
- inhibition at 10 µM [25]: 34.7%
- inhibition at 10 µM [26]: -16.8%
- inhibition at 10 µM [27]: -15.8%
- inhibition at 10 µM [28]: 1.22%
- inhibition at 10 µM [29]: 6.28%
- inhibition at 10 µM [30]: 1.43%
- inhibition at 10 µM [31]: 2.3%
- inhibition at 10 µM [32]: 3.43%
- inhibition at 10 µM [33]: -11.2%
- inhibition at 10 µM [34]: 27.4%
- inhibition at 10 µM [35]: 8.55%
- inhibition at 10 µM [36]: 1.99%
- inhibition at 10 µM [37]: -8.05%
- inhibition at 10 µM [38]: 10.4%
- inhibition at 10 µM [39]: -4.91%
- inhibition at 10 µM [40]: 4.62%
- inhibition at 10 µM [41]: -2.89%
- inhibition at 10 µM [42]: -18.1%
- inhibition at 10 µM [43]: -0.93%
- inhibition at 10 µM [44]: 5.89%
